Each block holds one compound with its values, some of them ahead of it.
What was measured:
[1] = Metabolic stability assay, CD-1 mouse microsomes; assay type: in vitro ADME; conditions: both, CD-1, mouse, microsomes, 10 µM; for Metabolic Stability 60 min mouse [% remain.]: 1 h
[2] = Plasma stability assay, rat plasma (values in parentheses); assay type: in vitro ADME; conditions: value in parentheses
[3] = in vitro; assay type: in vitro ADME, human; conditions: human, plasma; for Plasma Stability 240 min hum [% remain.]: 4 h; for Plasma Stability 240 min hum [% remain.] / Plasma Stability T½ [min] hum: 10 µM
[4] = Metabolic stability assay, human microsomes; assay type: in vitro ADME; conditions: human, microsomes; for Metabolic Stability T½ [min] hum / Metabolic Stability 60 min hum [% remain.]: both, 10 µM; for Metabolic Stability 60 min hum [% remain.]: 1 h; for half-life at 10 µM: both sexes
[5] = Metabolic stability assay, rat microsomes (values in parentheses); assay type: in vitro ADME; conditions: value in parentheses
[6] = in vitro; assay type: in vitro ADME, mouse; conditions: both, CD-1, mouse, plasma, 10 µM
[7] = molecular target: T1, Motilin Receptor (Homo sapiens, UniProt O43193); assay: Ca2+ assay (FLIPR) for the GPCR motilin receptor, agonist and antagonist mode; assay type: cell-based; conditions: antagonist mode
T1 construct: host or cells: Ca2+ optimized hematopoietic cell lines (rat)
T1 sequence (O43193 whole entry, species assumed): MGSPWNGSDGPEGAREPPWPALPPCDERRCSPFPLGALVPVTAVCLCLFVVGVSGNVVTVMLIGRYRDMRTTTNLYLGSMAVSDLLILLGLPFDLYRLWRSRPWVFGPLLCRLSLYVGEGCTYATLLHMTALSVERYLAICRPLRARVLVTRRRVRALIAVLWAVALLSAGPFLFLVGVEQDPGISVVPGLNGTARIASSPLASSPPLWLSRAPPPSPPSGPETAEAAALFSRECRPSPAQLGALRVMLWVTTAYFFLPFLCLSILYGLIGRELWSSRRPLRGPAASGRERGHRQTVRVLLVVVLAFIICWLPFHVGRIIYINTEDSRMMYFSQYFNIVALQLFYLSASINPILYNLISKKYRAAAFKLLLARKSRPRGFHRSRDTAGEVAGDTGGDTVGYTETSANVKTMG
Procedure: Ca^2+ Assays for the GPCRs Motilin Receptor, Prostaglandin F (FP) Receptor, 5-hydroxytryptamine 2B (5-HT2B) Receptor, and Purinoreceptor P2Y1
Assays were performed using on a FLIPR^TETRA fluorometric imaging plate reader (Molecular Devices) with ScreenWorks Version 2 (Molecular Devices) as device operating and data analysis software.
Dose dependent agonist and antagonist activities were determined. Percentage activation and percentage inhibition values were determined.
Percentage activation was determined upon initial addition of the sample compounds followed by 10 minutes incubation at 25° C. Following compound incubation, reference agonists were added at EC80 to determine percentage inhibition.
Reference agonists were purchased from reputable commercial vendors and prepared according to each ligand's specifications. All handling of ligands were done to ensure proper control throughout the experiments.
Example compounds were weighed on a Microbalance (Mettler MX5) and dissolved in 100% DMSO to a final concentration of 2.5 mM and subsequently diluted into the assay buffer.
The Assay buffer was a supplemented HBSS (Hank's Balanced Salt Solution). HBSS was supplemented with 20 mM HEPES (4-(2-hydroxyethyl)-piperazin-1-ethansulfonic acid) and 2.5 mM Probenecid (Sigma P8761).
GPCR assays were performed using Ca^2+ optimized hematopoietic cell lines (rat) with cultures never exceeding 90% confluency. […] After seeding, the assay plates were incubated for forty-five (45) minutes at room temperature. After room temperature incubation, the assay plates were incubated at 37° C. 5% CO2 for 24 hours prior to assaying.
All GPCR assays were performed using Fluo-8 Ca^2+ dye. Ca^2+ dye was prepared at 1× dye concentration in GPCR assay buffer. After 24 hours of incubation, cells were washed with GPCR assay buffer, and then Ca^2+-dye (100 μL/well) was added.
The plates were incubated for 90 minutes at 30° C. 5% CO2 prior to FLIPR assay.
Compound plates were prepared to add 50 μL/well during the agonist assay mode. During the FLIPR assay, 50 μL/well from the compound plate was diluted 3-fold into the existing 100 μL/well from the dye loading step. Therefore all compounds were prepared as 3× the final concentration desired in the assay.
After completion of the first single addition assay run, assay plate was removed from the FLIPR Tetra and placed at 25° C. for seven (7) minutes before antagonist assay.
Using the EC80 values determined during the agonist assay, all pre-incubated sample compound and reference antagonist (if applicable) wells were stimulated at the EC80 of the reference agonist. As reference ligands for the first three assays their obvious natural ligands motilin, prostaglandin F2α, and serotonin (5-HT, 5-Hydroxytryptamine) were used; and for the P2Y1 assay 2MeSATP (2-methyl-thio-adeno-sine 5′-triphosphate, i.e. (2R,3S,4R)-5-(6-amino-2-methylsulfanyl-purin-9-yl)-3,4-dihydroxy-tetrahydrofuran-2-yl]methyl (hydroxy-phosphonooxy-phosphoryl)hydrogen phosphate) was applied.
After the addition of the reference agonist fluorescence was monitored for 180 sec using FLIPR Tetra.
Data Analysis and Results:
From the FLIPR data, with negative control correction enabled, the maximum statistic for each well was exported and percentage activation relative to Emax control was calculated.
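Throughout, for Plasma Stability 240 min mouse [% remain.]: sodium citrate stabilized mouse plasma, parent compound quantified by HPLC/MS/MS relative to its peak area at time zero, run in triplicate.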
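Throughout, for Plasma Stability T½ [min] mouse: sodium citrate stabilized mouse plasma, parent compound quantified by HPLC/MS/MS relative to its peak area at time zero, run in triplicate.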

Metabolic Stability T½ [min] mouse [1]: > 60 min
Metabolic Stability 60 min mouse [% remain.] [1]: 87 % remain.
Plasma Stability 240 min (rat) [% remain.] [2]: (100) % remain.
Plasma Stability T½ [min] (rat) [2]: (240) min
half-life at 10 µM [3]: 4 h
Plasma Stability 240 min hum [% remain.] [3]: 48 % remain.
Metabolic Stability T½ [min] hum [4]: > 60 min
Metabolic Stability 60 min hum [% remain.] [4]: 65 % remain.
Metabolic Stability 60 min (rat) [% remain.] [5]: 72 % remain.
Metabolic Stability T½ [min] (rat) [5]: 60 (60) min
Compound: COCCNC(=O)[C@@H]1COCC(=O)N2C[C@@H](N3CCN(Cc4ccccc4)CC3)C[C@H]2COc2cccc(c2)C(=O)N1C [Ex. 378, (4S,6S,13S)-6-(4-benzylpiperazino)-N-(2-methoxyethyl)-14-methyl-9,15-dioxo-2,11-dioxa-8,14-diazatricyclo[14.3.1.0^4,8]icosa-1(20),16,18-triene-13-carboxamide]

Plasma Stability 240 min (rat) [% remain.] [2]: (79) % remain.
Plasma Stability T½ [min] (rat) [2]: (240) min
Plasma Stability T½ [min] hum [3]: > 240 min
Plasma Stability 240 min hum [% remain.] [3]: 70 % remain.
Metabolic Stability T½ [min] hum [4]: > 60 min
Metabolic Stability 60 min hum [% remain.] [4]: 100 % remain.
Compound: CN1CCC[C@H](N2CCNCC2)C(=O)N2C[C@@H](O)C[C@H]2COc2cccc(c2)C1=O [Ex. 580, (4S,6S,10S)-6-hydroxy-14-methyl-10-piperazino-2-oxa-8,14-diazatricyclo[14.3.1.0^4,8]icosa-1(20),16,18-triene-9,15-dione]

Metabolic Stability T½ [min] mouse [1]: > 60 min
Metabolic Stability 60 min mouse [% remain.] [1]: 100 % remain.
Plasma Stability 240 min (rat) [% remain.] [2]: (77) % remain.
half-life at 10 µM ([2]; read-out: Plasma Stability T½ [min] (rat)): 210 min
Plasma Stability T½ [min] hum [3]: > 240 min
Plasma Stability 240 min hum [% remain.] [3]: 70 % remain.
Metabolic Stability T½ [min] hum [4]: > 60 min
Metabolic Stability 60 min hum [% remain.] [4]: 98 % remain.
Compound: CN1CCN([C@H]2CCCN(C)C(=O)c3cccc(c3)OC[C@@H]3C[C@H](O)CN3C2=O)CC1 [Ex. 581, (4S,6S,10S)-6-hydroxy-14-methyl-10-(4-methylpiperazino)-2-oxa-8,14-diazatricyclo[14.3.1.0^4,8]icosa-1(20),16,18-triene-9,15-dione]

Plasma Stability T½ [min] mouse [6]: > 240 min
Plasma Stability 240 min mouse [% remain.] ([6]; 4 h): 90 % remain.
Metabolic Stability T½ [min] mouse [1]: > 60 min
Metabolic Stability 60 min mouse [% remain.] [1]: 100 % remain.
Plasma Stability T½ [min] hum [3]: > 240 min
Plasma Stability 240 min hum [% remain.] [3]: 100 % remain.
IC50 [7]: 0.2 µM
inhibition at 10 µM ([7]; at 10 μM): 99%
half-life at 10 µM [4]: 0.35 h
Metabolic Stability 60 min hum [% remain.] [4]: 11 % remain.
Compound: CN1CC(=O)N2C[C@@H](NC(=O)Cc3cccc4ccccc34)C[C@H]2COc2ccc(F)cc2C(=O)N(C)[C@H](C(=O)NCCNC(=N)N)CCC1=O [Ex. 484, (2S,11S,19aS)-N-(2-{[amino(imino)methyl]amino}ethyl)-15-fluoro-7,12-dimethyl-2-{[2-(1-naphthyl)acetyl]amino}-5,8,13-trioxo-2,3,6,7,8,9,10,11,12,13,19,19a-dodecahydro-1H,5H-pyrrolo[2,1-c] [1,4,7,12] benzoxatriazacyclopentadecine-11-carboxamide]

Second part, the compound before the results:

Compound: COCCNC(=O)[C@@H]1COCC(=O)N2C[C@@H](N)C[C@H]2COc2cccc(c2)C(=O)N1C [Ex. 369, (4S,6S,13S)-6-amino-N-(2-methoxyethyl)-14-methyl-9,15-dioxo-2,11-dioxa-8,14-diazatricyclo[14.3.1.0^4,8]icosa-1(20),16,18-triene-13-carboxamide]
Metabolic Stability T½ [min] mouse [1]: > 60 min
Metabolic Stability 60 min mouse [% remain.] [1]: 80 % remain.
Plasma Stability 240 min (rat) [% remain.] [2]: (79) % remain.
Plasma Stability T½ [min] (rat) [2]: (240) min
Plasma Stability T½ [min] hum [3]: > 240 min
Plasma Stability 240 min hum [% remain.] [3]: 85 % remain.
Metabolic Stability T½ [min] hum [4]: > 60 min
Metabolic Stability 60 min hum [% remain.] [4]: 100 % remain.
Metabolic Stability 60 min (rat) [% remain.] [5]: 100 % remain.
Metabolic Stability T½ [min] (rat) [5]: 60 (60) min

Compound: CN(C)CCNC(=O)[C@@H]1COCC(=O)N2C[C@@H](NC(=O)Cc3ccc4ccccc4c3)C[C@H]2COc2cccc(c2)C(=O)N1C [Ex. 374, (4S,6S,13S)-N-[2-(dimethylamino)ethyl]-14-methyl-6-{[2-(2-naphthyl)acetyl]amino}-9,15-dioxo-2,11-dioxa-8,14-diazatricyclo[14.3.1.0^4,8]icosa-1(20),16,18-triene-13-carboxamide]
Metabolic Stability T½ [min] mouse [1]: > 60 min
Metabolic Stability 60 min mouse [% remain.] [1]: 94 % remain.
Plasma Stability 240 min (rat) [% remain.] [2]: (82) % remain.
Plasma Stability T½ [min] (rat) [2]: (240) min
Plasma Stability T½ [min] hum [3]: > 240 min
Plasma Stability 240 min hum [% remain.] [3]: 57 % remain.
Metabolic Stability T½ [min] hum [4]: > 60 min
Metabolic Stability 60 min hum [% remain.] [4]: 61 % remain.
Metabolic Stability 60 min (rat) [% remain.] [5]: 90 % remain.
Metabolic Stability T½ [min] (rat) [5]: 60 (60) min

Compound: CN1C(=O)c2cccc(c2)OC[C@@H]2C[C@H](NC(=O)CCc3ccncc3)CN2C(=O)COC[C@H]1C(=O)NCc1ccc2ccccc2c1 [Ex. 372, (4S,6S,13S)-14-methyl-N-(2-naphthylmethyl)-9,15-dioxo-6-{[3-(4-pyridinyl)propanoyl]amino}-2,11-dioxa-8,14-diazatricyclo[14.3.1.0^4,8]icosa-1(20),16,18-triene-13-carboxamide]
Metabolic Stability T½ [min] mouse [1]: > 60 min
Metabolic Stability 60 min mouse [% remain.] [1]: 73 % remain.
Plasma Stability 240 min (rat) [% remain.] [2]: (100) % remain.
Plasma Stability T½ [min] (rat) [2]: (240) min
Plasma Stability T½ [min] hum [3]: > 240 min
Plasma Stability 240 min hum [% remain.] [3]: 68 % remain.
half-life at 10 µM [4]: 0.767 h
Metabolic Stability 60 min hum [% remain.] [4]: 43 % remain.
Metabolic Stability 60 min (rat) [% remain.] [5]: 72 % remain.
Metabolic Stability T½ [min] (rat) [5]: 60 (60) min

Compound: COCCNC(=O)[C@@H]1COCC(=O)N2C[C@@H](N3CCN(C)CC3)C[C@H]2COc2cccc(c2)C(=O)N1C [Ex. 377, (4S,6S,13S)-N-(2-methoxyethyl)-14-methyl-6-(4-methylpiperazino)-9,15-dioxo-2,11-dioxa-8,14-diazatricyclo[14.3.1.0^4,8]icosa-1(20),16,18-triene-13-carboxamide]
Metabolic Stability T½ [min] mouse [1]: > 60 min
Metabolic Stability 60 min mouse [% remain.] [1]: 86 % remain.
Plasma Stability 240 min (rat) [% remain.] [2]: (100) % remain.
Plasma Stability T½ [min] (rat) [2]: (240) min
Plasma Stability T½ [min] hum [3]: > 240 min
Plasma Stability 240 min hum [% remain.] [3]: 95 % remain.
Metabolic Stability T½ [min] hum [4]: > 60 min
Metabolic Stability 60 min hum [% remain.] [4]: 72 % remain.
Metabolic Stability 60 min (rat) [% remain.] [5]: 97 % remain.
Metabolic Stability T½ [min] (rat) [5]: 60 (60) min

Source: patent publication US9512139B2, “Conformationally constrained, fully synthetic macrocyclic compounds” (POLYPHOR AG, priority 2009, dated 2016)
